What was measured:
Format in all cases: in vivo
Conditions in all cases: 14 days after application
[1] = test system: johnsongrass (Sorghum halepense, SORHA); assay: Post-emerge greenhouse herbicide activity screening, phytotoxicity rating
From the text: (§1) A standard greenhouse herbicide activity screening system was used to evaluate the herbicidal efficacy and crop safety of these test compounds. Seven broadleaf weed species including redroot pigweed (Amaranthus retroflexus, AMARE), velvetleaf (Abutilon theophrasti, ABUTH), sicklepod (Cassia obtusifolia, CASOB), ivyleaf morningglory (Ipomoea hederacea, IPOHE), lambsquarters (Chenopodium album, CHEAL), common ragweed (Ambrosia artemisiifolia L., AMBEL), and cocklebur (Xanthium strumarium, XANST) were used as test species. Four grass weed species including green foxtail (Setaria viridis, SETVI), barnyardgrass (Echinochloa crus-galli, ECHCG), johnsongrass (Sorghum halepense, SORHA), and large crabgrass (Digitaria sanguinalis, DIGSA) were also used. In addition, three crop species, field corn (Zea mays L., var. Dekalb 535, CORN), soybean (Glycine max L., var. Pella 86, SOY), and upland rice (Oryza sp., var.Tebonnet, RICE) were included.
(§2) All plants were grown in 10 cm square plastic pots which were filled with a sandy loam soil mix. For pre-emerge tests, seeds were planted one day prior to application of the test compounds. For post-emerge tests, seeds were planted 8-21 days prior to the test to allow emergence and good foliage development prior to application of the test substances. At the time of the post-emerge application, plants of all species were usually at the 2-3 leaf stage of development.
(§3) All test compounds were dissolved in acetone and applied to the test units in a volume of 187 1/ha. Test materials were applied at rates ranging from 15 g ai/ha to 1000 g ai/ha using a track sprayer equipped with a TJ8001E even flow flat fan spray nozzle. Plants were arranged on a shelf so that the top of the canopy (post-emerge) or top of the soil surface (pre-emerge) was 40-45 cm below the nozzle. Pressurized air was used to force the test solution through the nozzle as it was mechanically advanced (via electrically driven chain drive) over the top of all test plants/pots. This application simulates a typical commercial field herbicide application.
(§4) In the post-emerge test, a commercial non-ionic surfactant was also included (0.25% v/v) to enhance wetting of the leaf surfaces of target plants. Immediately after application, test units of the pre-emerge applications were watered at the soil surface to incorporate the test materials. Subsequently, these test units were bottom-watered. Post-emerge test units were always bottom-watered.
(§5) At 14 days after application of the test materials, phytotoxicity ratings were recorded. A rating scale of 0-100 was used as previously described in Research Methods in Weed Science, 2nd edition, B. Truelove, Ed., Southern Weed Science Society, Auburn University, Auburn, Ala., 1977. Briefly, “0” corresponds to no damage and “100” corresponds to complete death of all plants in the test unit. This scale was used both to determine efficacy against weed species and damage to crop species. Herbicide activity data for various compounds of this invention, which are shown by compound No. in Tables I-VI, are shown in Tables VIII-IX.

[2] = test system: ivyleaf morningglory (Ipomoea hederacea, IPOHE); assay: as above
From the text: as §1, §2, §3, §4, §5

[3] = test system: redroot pigweed (Amaranthus retroflexus, AMARE); assay: as above
From the text: as §1, §2, §3, §4, §5

[4] = test system: sicklepod (Cassia obtusifolia, CASOB); assay: as above
From the text: as §1, §2, §3, §4, §5

[5] = test system: common ragweed (Ambrosia artemisiifolia L., AMBEL); assay: as above
From the text: as §1, §2, §3, §4, §5

[6] = test system: barnyardgrass (Echinochloa crus-galli, ECHCG); assay: as above
From the text: as §1, §2, §3, §4, §5

[7] = test system: green foxtail (Setaria viridis, SETVI); assay: as above
From the text: as §1, §2, §3, §4, §5

[8] = test system: lambsquarters (Chenopodium album, CHEAL); assay: as above
From the text: as §1, §2, §3, §4, §5

[9] = test system: large crabgrass (Digitaria sanguinalis, DIGSA); assay: as above
From the text: as §1, §2, §3, §4, §5

[10] = test system: velvetleaf (Abutilon theophrasti, ABUTH); assay: as above
From the text: as §1, §2, §3, §4, §5

[11] = test system: johnsongrass (Sorghum halepense, SORHA); assay: Pre-emerge greenhouse herbicide activity screening, phytotoxicity rating
From the text: as §1, §2, §3, §4, §5

[12] = test system: ivyleaf morningglory (Ipomoea hederacea, IPOHE); assay: as above
From the text: as §1, §2, §3, §4, §5

[13] = test system: redroot pigweed (Amaranthus retroflexus, AMARE); assay: as above
From the text: as §1, §2, §3, §4, §5

[14] = test system: sicklepod (Cassia obtusifolia, CASOB); assay: as above
From the text: as §1, §2, §3, §4, §5

[15] = test system: common ragweed (Ambrosia artemisiifolia L., AMBEL); assay: as above
From the text: as §1, §2, §3, §4, §5

[16] = test system: barnyardgrass (Echinochloa crus-galli, ECHCG); assay: as above
From the text: as §1, §2, §3, §4, §5

[17] = test system: green foxtail (Setaria viridis, SETVI); assay: as above
From the text: as §1, §2, §3, §4, §5

[18] = test system: lambsquarters (Chenopodium album, CHEAL); assay: as above
From the text: as §1, §2, §3, §4, §5

[19] = test system: large crabgrass (Digitaria sanguinalis, DIGSA); assay: as above
From the text: as §1, §2, §3, §4, §5

[20] = test system: velvetleaf (Abutilon theophrasti, ABUTH); assay: as above
From the text: as §1, §2, §3, §4, §5

[21] = test system: soybean (Glycine max L., var. Pella 86, SOY); assay: Post-emerge greenhouse screening, crop safety (phytotoxicity rating)
From the text: as §1, §2, §3, §4, §5

[22] = test system: upland rice (Oryza sp., var.Tebonnet, RICE); assay: as above
From the text: as §1, §2, §3, §4, §5

[23] = test system: field corn (Zea mays L., var. Dekalb 535, CORN); assay: Pre-emerge greenhouse screening, crop safety (phytotoxicity rating)
From the text: as §1, §2, §3, §4, §5

[24] = test system: soybean (Glycine max L., var. Pella 86, SOY); assay: as above
From the text: as §1, §2, §3, §4, §5

[25] = test system: upland rice (Oryza sp., var.Tebonnet, RICE); assay: as above
From the text: as §1, §2, §3, §4, §5

[26] = test system: field corn (Zea mays L., var. Dekalb 535, CORN); assay: Post-emerge greenhouse screening, crop safety / corn selectivity (phytotoxicity rating)
From the text: as §1, §2, §3, §4, §5

Cn1c(C(F)(F)F)cc(=O)n(-c2cc(Oc3ccccc3)c(Cl)cc2F)c1=S [Compound 1-47]
SORHA phytotoxicity rating (0-100 scale) ([1]; 125 g ai/ha): 0
SORHA phytotoxicity rating (0-100 scale) ([1]; 250 g ai/ha): 0
IPOHE phytotoxicity rating (0-100 scale) ([2]; 125 g ai/ha): 75
IPOHE phytotoxicity rating (0-100 scale) ([2]; 250 g ai/ha): 85
AMARE phytotoxicity rating (0-100 scale) ([3]; 125 g ai/ha): 100
AMARE phytotoxicity rating (0-100 scale) ([3]; 250 g ai/ha): 100
CASOB phytotoxicity rating (0-100 scale) ([4]; 125 g ai/ha): 65
CASOB phytotoxicity rating (0-100 scale) ([4]; 250 g ai/ha): 65
AMBEL phytotoxicity rating (0-100 scale) ([5]; 125 g ai/ha): 70
AMBEL phytotoxicity rating (0-100 scale) ([5]; 250 g ai/ha): 75
ECHCG phytotoxicity rating (0-100 scale) ([6]; 125 g ai/ha): 60
ECHCG phytotoxicity rating (0-100 scale) ([6]; 250 g ai/ha): 65
SETVI phytotoxicity rating (0-100 scale) ([7]; 125 g ai/ha): 50
SETVI phytotoxicity rating (0-100 scale) ([7]; 250 g ai/ha): 75
CHEAL phytotoxicity rating (0-100 scale) ([8]; 125 g ai/ha): 99
CHEAL phytotoxicity rating (0-100 scale) ([8]; 250 g ai/ha): 100
DIGSA phytotoxicity rating (0-100 scale) ([9]; 125 g ai/ha): 10
DIGSA phytotoxicity rating (0-100 scale) ([9]; 250 g ai/ha): 35
ABUTH phytotoxicity rating (0-100 scale) ([10]; 125 g ai/ha): 100
ABUTH phytotoxicity rating (0-100 scale) ([10]; 250 g ai/ha): 100
SORHA phytotoxicity rating (0-100 scale) ([11]; 125 g ai/ha): 50
SORHA phytotoxicity rating (0-100 scale) ([11]; 250 g ai/ha): 55
IPOHE phytotoxicity rating (0-100 scale) ([12]; 125 g ai/ha): 95
IPOHE phytotoxicity rating (0-100 scale) ([12]; 250 g ai/ha): 98
AMARE phytotoxicity rating (0-100 scale) ([13]; 125 g ai/ha): 100
AMARE phytotoxicity rating (0-100 scale) ([13]; 250 g ai/ha): 100
CASOB phytotoxicity rating (0-100 scale) ([14]; 125 g ai/ha): 90
CASOB phytotoxicity rating (0-100 scale) ([14]; 250 g ai/ha): 99
AMBEL phytotoxicity rating (0-100 scale) ([15]; 125 g ai/ha): 95
AMBEL phytotoxicity rating (0-100 scale) ([15]; 250 g ai/ha): 99
ECHCG phytotoxicity rating (0-100 scale) ([16]; 125 g ai/ha): 80
ECHCG phytotoxicity rating (0-100 scale) ([16]; 250 g ai/ha): 85
SETVI phytotoxicity rating (0-100 scale) ([17]; 125 g ai/ha): 100
SETVI phytotoxicity rating (0-100 scale) ([17]; 250 g ai/ha): 100
CHEAL phytotoxicity rating (0-100 scale) ([18]; 125 g ai/ha): 100
CHEAL phytotoxicity rating (0-100 scale) ([18]; 250 g ai/ha): 100
DIGSA phytotoxicity rating (0-100 scale) ([19]; 125 g ai/ha): 95
DIGSA phytotoxicity rating (0-100 scale) ([19]; 250 g ai/ha): 100
ABUTH phytotoxicity rating (0-100 scale) ([20]; 125 g ai/ha): 100
ABUTH phytotoxicity rating (0-100 scale) ([20]; 250 g ai/ha): 100
SOY crop damage, phytotoxicity rating (0-100 scale) ([21]; 125 g ai/ha): 15
SOY crop damage, phytotoxicity rating (0-100 scale) ([21]; 250 g ai/ha): 40
RICE crop damage, phytotoxicity rating (0-100 scale) ([22]; 125 g ai/ha): 0
RICE crop damage, phytotoxicity rating (0-100 scale) ([22]; 250 g ai/ha): 0
CORN crop damage, phytotoxicity rating (0-100 scale) ([23]; 125 g ai/ha): 5
CORN crop damage, phytotoxicity rating (0-100 scale) ([23]; 250 g ai/ha): 8
SOY crop damage, phytotoxicity rating (0-100 scale) ([24]; 125 g ai/ha): 50
SOY crop damage, phytotoxicity rating (0-100 scale) ([24]; 250 g ai/ha): 65
RICE crop damage, phytotoxicity rating (0-100 scale) ([25]; 125 g ai/ha): 15
RICE crop damage, phytotoxicity rating (0-100 scale) ([25]; 250 g ai/ha): 25
CORN crop damage, phytotoxicity rating (0-100 scale) ([26]; 125 g ai/ha): 0
CORN crop damage, phytotoxicity rating (0-100 scale) ([26]; 250 g ai/ha): 0

Reference: US6613718B2, “Aryl ether derivatives and processes for their preparation and herbicidal and desiccant compositions containing them” (Ishihara Sangyo Kaisha, Ltd., priority 2001, dated 2003)
